Source: US20210308089A1, “METHODS OF TREATING AND/OR PREVENTING VIRAL INFECTIONS AND/OR DISEASES CAUSED BY VIRUSES IN A SUBJECT IN NEED THEREOF” (priority 2020, published 2021)

Tests used:
[1] = human, in vivo, 1 year
Description: Additional laboratory tests: Additional laboratory tests were performed and included: • A urine pregnancy test was administered to women of childbearing potential at certain visits as listed in schedule of procedures (Table 1). The urine pregnancy tests were performed at the Research Site utilizing marketed test kits, or at a certified clinical laboratory; • A fasting blood sample (10 mL) for archiving. This sample was collected only at sites in countries where allowed by local regulations and at sites for which approved by the IRB or IEC. The plasma from the archiving sample was stored frozen in 2 separate equal aliquots, and was used at the Sponsor's discretion to perform repeat analyses described in the protocol or to perform other tests related to cardiovascular health; and • Potential non-genetic bioassays were performed, including but not limited to: Apo A1, Apo C3, Apo E, NMR lipid profile (particle size and number), oxidized LDL, Lp(a), Lp-PLA2, serum fatty-acids concentrations, and gamma-glutamyltransferase (GGT).
In addition, the following were analyzed as tertiary endpoints for the ITT population: • Relationship between on-treatment hs-CRP and the primary and key secondary endpoints; and • Relationship between on-treatment serum eicosapentaenoic acid (EPA) and the primary and key secondary endpoints. […]

[2] = system: TG, non-HDL-C, LDL-C, HDL-C, Apo B, hs-CRP; assay: REDUCE-IT: fasting lipid, lipoprotein and inflammatory markers over time; format: in vivo, human
Excerpt: The key tertiary objectives for this study were to evaluate the effect of AMR101 4 g daily from baseline and percent change form baseline in fasting triglycerides and LDL-C. […]

[3] = system: statin-treated hypertriglyceridemic patients with cardiovascular disease or at high risk for cardiovascular disease; assay: REDUCE-IT: time to first occurrence of adjudicated cardiovascular events (primary, secondary, tertiary endpoints), AMR101 4 g/day vs placebo; format: in vivo, human
Excerpt: The following study, also referred to as the REDUCE-IT clinical trial, was a large cardiovascular (CV) outcome trial designed to assess CV risk reduction benefit of AMR101 treatment (commercially known as VASCEPA®) versus placebo on the 5-point primary composite endpoint: CV death, nonfatal stroke, nonfatal myocardial infarction (MI), coronary revascularizations, or unstable angina requiring hospitalization.
A multi-center, prospective, randomized, double-blind, placebo-controlled, parallel-group study was performed to evaluate the effect of AMR101 (4 g per day) on cardiovascular health and mortality in hypertriglyceridemic patients with cardiovascular disease or at high risk for cardiovascular disease. The intended expanded indication of the study was treatment with AMR101 as an add-on to statin therapy to reduce the risk of cardiovascular events in patients with clinical cardiovascular disease or with multiple risk factors for cardiovascular disease.
The primary objective of this study was, in patients at LDL-C goal while on statin therapy, with established cardiovascular disease (CVD) or at high risk for CVD, and hypertriglyceridemia (e.g., fasting triglycerides(TG) ≥200 mg/dL and <500 mg/dL), to evaluate the effect of AMR101 4 g daily on time from randomization to first occurrence of any component of the composite of the following major CV events: CV death; nonfatal MI (including silent MI); electrocardiograms (ECGs) were performed annually for the detection of silent MIs); nonfatal stroke; coronary revascularization; and unstable angina determined to be caused by myocardial ischemia by invasive/non-invasive testing and requiring emergent hospitalization.
The key secondary objective of this study was to evaluate the effect of AMR101 4 g daily on the time from randomization to the first occurrence of the composite of following major CV events: CV death, nonfatal MI (including silent MI), and nonfatal stroke.
Other secondary objectives for this study were to evaluate the effect of therapy on time from randomization to the first occurrence of the following individual or composite endpoints: composite of CV death or nonfatal MI (including silent MI); fatal or nonfatal MI (including silent MI); non-elective coronary revascularization represented as the composite of emergent or urgent classifications; CV death; unstable angina determined to be caused by myocardial ischemia by invasive/non-invasive testing and requiring emergent hospitalization; fatal or nonfatal stroke; composite of total mortality, nonfatal MI (including silent MI), or nonfatal stroke; and total mortality.
Primary Efficacy Endpoint: The primary efficacy endpoint was time from randomization to the first occurrence of the composite of the following clinical events: CV death; nonfatal MI (including silent MI; ECGs were performed annually for the detection of silent MIs); nonfatal stroke; coronary revascularization; and unstable angina determined to be caused by myocardial ischemia by invasive/non-invasive testing and requiring emergent hospitalization. The first occurrence of any of these major adverse vascular events during the follow-up period of the study was included in the incidence.
Secondary Efficacy Endpoints: The key secondary efficacy endpoint was the time from randomization to the first occurrence of the composite of CV death, nonfatal MI (including silent MI), or nonfatal stroke. […]

[4] = Year 1 (as headed in Table 18), 4 g/day
[5] = Year 1 (as headed in Table 18), vs placebo
[6] = REDUCE-IT ITT, listed as AMR101
[7] = REDUCE-IT ITT, time to first event
[8] = vs placebo, listed as Icosapent Ethyl

Compound: CC/C=C\C/C=C\C/C=C\C/C=C\C/C=C\CCCC(=O)OCC [icosapent ethyl, eicosapentaenoic acid ethyl ester]
- EPA between group difference, median % change from baseline [1]: 358.8%
- EPA between group difference, median absolute change from baseline [1]: 114.9 µg/mL
- LDL cholesterol median change (increase) from baseline ([2]; 4 g/day): 0.05 mmol/L
- LDL-C derived median % change from baseline ([2]; Last Visit, 4 g/day, ITT): 3.1%
- LDL-C derived median absolute change from baseline ([2]; Last Visit, 4 g/day, ITT): 2.0 mg/dL
- Reduction in hs-CRP observed in patients from this trial ([2]; REDUCE-IT): 40%
- Apo B median [2, 4]: 80.0 mg/dL
- hs-CRP median [2, 4]: 1.8 mg/L
- Apo B median between group difference, % change from baseline [2, 5]: −9.7%
- Apo B median between group difference, absolute change from baseline [2, 5]: -8.0 mg/dL
- hs-CRP median between group difference, absolute change from baseline [2, 5]: -0.9 mg/L
- Triglycerides: median reduction from baseline greater than in placebo group (Hodges-Lehmann) ([2]; baseline to one year): 19.7%
- Amputation for PVD: % of patients ([3]; REDUCE-IT ITT): (0.5%)
- Cardiac arrest: % of patients ([3]; REDUCE-IT ITT): (0.5%)
- Cardiac arrhythmias requiring hospitalization of ≥24 hours: % of patients ([3]; REDUCE-IT ITT): (4.6%)
- Cardiovascular death: HR vs placebo ([3]; REDUCE-IT ITT): 0.80
- Cardiovascular death: patients ([3]; REDUCE-IT ITT): 4.3%
- Carotid revascularization: % of patients ([3]; REDUCE-IT ITT): (0.8%)
- Coronary revascularization: % of patients ([3]; REDUCE-IT ITT): (9.2%)
- Elective revascularization: % of patients ([3]; REDUCE-IT ITT): (4.7%)
- Emergent revascularization: % of patients ([3]; REDUCE-IT ITT): (1.0%)
- Hemorrhagic stroke: % of patients ([3]; REDUCE-IT ITT): (0.3%)
- Ischemic stroke: % of patients ([3]; REDUCE-IT ITT): (2.0%)
- New heart failure requiring hospitalization: % of patients ([3]; REDUCE-IT ITT): (3.4%)
- New heart failure: % of patients ([3]; REDUCE-IT ITT): (4.1%)
- Primary endpoint in patients with diabetes at baseline: % of patients ([3]; REDUCE-IT ITT): (18.1%)
- Salvage revascularization: % of patients ([3]; REDUCE-IT ITT): (0.0%)
- Sudden cardiac death: % of patients ([3]; REDUCE-IT ITT): (1.5%)
- Total mortality (death from any cause): patients ([3]; REDUCE-IT ITT): 6.7%
- Total mortality: HR vs placebo ([3]; REDUCE-IT ITT): 0.87
- Transient ischemic attack: % of patients ([3]; REDUCE-IT ITT): (1.6%)
- Urgent revascularization: % of patients ([3]; REDUCE-IT ITT): (4.4%)
- Hemorrhagic stroke: % of patients [3, 6]: 0.3%
- New heart failure: % of patients [3, 6]: 4.1%
- Key secondary composite endpoint: HR vs placebo [3, 7]: 0.74
- Primary composite endpoint: HR vs placebo [3, 7]: 0.75
- New onset of diabetes: % of patients ([3]; patients with diabetes at baseline excluded): (3.8%)
- Composite of cardiovascular death or nonfatal myocardial infarction: RRR ([3]; vs placebo): 25%
- Composite of total mortality, nonfatal myocardial infarction, or nonfatal stroke: reduction (RRR) ([3]; vs placebo): 23%
- Key secondary composite endpoint: relative risk reduction ([3]; vs placebo): 26%
- Primary composite endpoint: relative risk reduction ([3]; vs placebo): 25%
- Total mortality: reduction (RRR) ([3]; vs placebo): 13%
- Key secondary composite endpoint: relative risk reduction [3, 8]: 26.5%
- Primary composite endpoint: relative risk reduction [3, 8]: 24.8%
